Source: PMC6271476, “Synthesis, Anticancer Activity and UPLC Analysis of the Stability of Some New Benzimidazole-4,7-dione Derivatives” (Molecules, 2013)
Like-named read-outs stand apart in the source and are kept apart here.

Columns and labels:
[1] = tested on: human lung adenocarcinoma A549 cells; experiment: WST-1 cell viability assay, growth inhibition of A549 cells under normoxia and hypoxia; settings: for inhibition of the cell growth / decrease of cell viability compared to control cells: compound at 10 µM, 48 h; for Differential cytotoxicity O/H (hypoxic/aerobic cytotoxicity coefficient): ratio IC50 normoxia / IC50 hypoxia, A549
Method: (§1) The human lung adenocarcinoma A549 cell line, purchased from Health Protection Agency Culture Collections (ECACC, Salisbury, UK), was cultured in F12K medium (HyClone, Loughborough, UK) supplemented with 10% heat-inactivated foetal bovine serum (FBS), penicillin (10 U/mL) and streptomycin (10 µg/mL) in air with 5% CO2 at 37 °C. Hypoxic cells were obtained by culturing in a hypoxic incubator in 1% O2 and 5% CO2 at 37 °C for 24 h before treatment.
(§2) In order to determine the anticancer activity of the analysed compounds we evaluated the cell viability using THE WST-1 assay (Millipore, Billerica, MA, USA) according to the manufacturer’s instructions.
(§3) The absorbance was determined at 420 nm using a microplate reader (Synergy H1, Bio-Tek, Winooski, VT, USA) after 3 h of incubation at 37 °C.
(§4) In order to determine the anticancer activity of the analysed compounds we evaluated the cell viability using the WST-1 assay, which is based on the conversion of the tetrazolium salt WST-1 to formazan by cellular mitochondrial dehydrogenases. Therefore, the amount of formazan dye formed directly correlates with the number of live cells in the culture.
(§5) A549 cells were seeded in 96-well plates at a density of 5,000 cells/well and cultured under normoxic conditions. To investigate the effect of compounds on hypoxic cancer cells, A549 cells were exposed to hypoxia (1% O2) for 24 h before treatment. […] Normoxic and hypoxic cells were treated with different concentrations of the tested compounds or vehicle (0.2% DMSO) for control cells. The cell viability was assessed after a 48 h incubation under normoxic or hypoxic conditions with the compounds. Briefly, WST-1 reagent was added to the cells and the percentage (%) of cell viability related to control cells was calculated by the expression [A] test/[A] control × 100 where [A] test is the absorbance of the cells treated with compounds and [A] control is the absorbance of control cells.

[2] = tested on: human lung adenocarcinoma A549 cells
Method: as §1, §2, §3, §4, §5

[3] = Stability (degradation kinetics, recovery) in different solvent environments by RP-UPLC; type: physicochemical; settings: for half-life at 0.1 mg/mL: read-out: degradation t1/2 (converted)
Method: Chromatographic purification was performed on silica gel plates (Merck F254, Darmstadt, Germany) with the indicated eluents. Chemicals and solvents were obtained from commercial sources. The UPLC system consisted of an Acquity Ultra Performance LC Waters H-class system (Waters, Corporation, Milford, MA, USA). Chromatographic separation was achieved on an Acquity UPLC HSS T3 column (1.8 µm × 2.1 × 50 mm). The chromatographic peaks were identified with the Waters PDA eλ Acquity UPLC Detector. Compound 5b was monitored at a wavelength of 261 nm and compound 6b at 289 nm. All chromatographic experiments were performed in an isocratic mode. The mobile phase consisted of a mixture of solvents of chromatographic purity, acetonitrile/buffer (30:70 v/v). Buffer was a 0.01 M mixture of ammonium formate and formic acid pH = 2.4. The flow rate was set to 0.5 mL/min and the oven temperature to 25 °C. Compound samples were weighed on analytical scales with an accuracy of 0.01 mg. All the samples were prepared in 5, 10 and 25 mL volumetric flasks. Solution volume injections of 1.5 µL were performed with the use of an autosampler. Each sample was analysed three times and the run time analysis was five minutes. All solutions were filtered through a 0.45 µm membrane filter. The final result was presented as an arithmetical mean. The control of the UPLC system and detection was achieved by the Empower 3 Waters® software. Solvents for UPLC analysis were of UPLC grade and obtained from J. T. Baker (Center Valley, PA, USA). The method was validated in terms of precision, accuracy, specificity, detectability, and stability for compounds 5b and 6b.
Stability: Each medium (1 mL, 0.2% DMSO, water, 0.9% NaCl, and HCl pH = 1.5) was added to 10 mL volumetric flasks containing products 5b and 6b (1 mg). The flasks were filled up with the mobile phase. Each solution was analysed at t0 and after 6, 24, 48, and 72 h. The obtained calibration curve was used for the determination of degradation kinetics of the compounds in the solvents. The degradation kinetic parameters: rate constant (k) and t1/2 (half-life) were calculated with the use of Equation (3), where c0 is the concentration at time zero, c is the remaining concentration, k is the rate constant (h^−1) and t is the time (h): […]

[4] = as above; type: physicochemical; settings: for half-life at 0.1 mg/mL: read-out: degradation t1/2 (converted); remark: listed apart in the source
[5] = read-out: IC50 A549 Hypoxia (H), A549 cells, hypoxia (1% O2, 24 h before treatment and during culture), 48 h incubation, WST-1, mean ± SD, n = 3
[6] = read-out: IC50 A549 Normoxia (O), A549 cells, normoxia, 48 h incubation, WST-1, mean ± SD, n = 3
[7] = Homo sapiens, A549, 48 h, read-out: IC50 A549 Normoxia (O), A549 cells, normoxia, 48 h incubation, WST-1, mean ± SD, n = 3
[8] = Homo sapiens, A549, read-out: IC50 A549 Hypoxia (H), A549 cells, hypoxia (1% O2, 24 h before treatment and during culture), 48 h incubation, WST-1, mean ± SD, n = 3

Compound	IC50 [1, 5] [µM]	IC50 [1, 6] [µM]	IC50 [1, 7] [µM]	IC50 [1, 8] [µM]	Differential cytotoxicity O/H (hypoxic/aerobic cytotoxicity coefficient) [1]	other results
O=C1C=CC(=O)c2[nH]c(-c3ccc(Cl)cc3)nc21 [Compound 5a, 2-(4-Chlorophenyl)-1H-benzimidazol-4,7-dione]	–	–	30.2 ± 1.2	36.1 ± 1.2	0.83	inhibition of the cell growth / decrease of cell viability compared to control cells ([1]; normoxia): approximately 33%
O=C1C=CC(=O)c2[nH]c(-c3ccccc3[N+](=O)[O-])nc21 [Compound 5b, 2-(2-Nitrophenyl)-1H-benzimidazol-4,7-dione]	–	100 ± 1.8	< 100	47.4 ± 1.1	2.13	degradation rate constant k ([3]; 0.2% DMSO): 0.0002 h⁻¹; half-life at 0.1 mg/mL ([3]; 0.2% DMSO): 215 h; degradation rate constant k ([3]; 0.9% NaCl): 0.0004 h⁻¹; half-life at 0.1 mg/mL ([3]; 0.9% NaCl): 155 h; degradation ([3]; water, up to 72 h): did not suffer any degradation; half-life at 0.1 mg/mL ([3]; water, H2O): > 72 h; half-life at 0.1 mg/mL ([4]; MeOH): > 72 h; degradation ([4]; methanol, up to 72 h): did not suffer any degradation
O=C1C=CC(=O)c2[nH]c(-c3ccc4c(c3)OCO4)nc21 [Compound 5c, 2-Benzo[1,3]dioxol-1H-benzimidazol-4,7-dione]	–	–	80.9 ± 1.9	51.2 ± 1.5	1.58	–
O=C1C=CC(=O)c2[nH]c(-c3ccc4ccccc4c3)nc21 [Compound 5d, 2-Naphthyl-1H-benzimidazol-4,7-dione]	232.4 ± 1.4	–	–	–	2.06	–
Nc1n[n+]([O-])c2ccccc2[n+]1[O-] [Tirapazamine, reference compound]	–	166.2 ± 1.6	166	30 ± 1.5	–	–

Further lines, with some results ahead:

IC50 [1, 5] [µM]	IC50 [1, 6] [µM]	IC50 [1, 7] [µM]	IC50 [1, 8] [µM]	Compound	Differential cytotoxicity O/H (hypoxic/aerobic cytotoxicity coefficient) [1]	other results
35 ± 1.6	116 ± 1.9	–	–	2-(4-Chlorophenyl)-1H-benzimidazol-4,7-dione N-oxide [Compound 6a]	–	inhibition of the cell growth / decrease of cell viability compared to control cells ([1]; normoxia): 20%; Differential cytotoxicity O/H (hypoxic/aerobic cytotoxicity coefficient) [2]: 3.28
–	–	–	116 ± 0.8	O=C1C=CC(=O)c2c1[nH]c(-c1ccccc1[N+](=O)[O-])[n+]2[O-] [Compound 6b, 2-(2-Nitrophenyl)-1H-benzimidazol-4,7-dione N-oxide]	4.31	degradation rate constant k ([3]; 0.2% DMSO): 0.00009 h⁻¹; half-life at 0.1 mg/mL ([3]; 0.2% DMSO): 413 h; degradation rate constant k ([3]; 0.9% NaCl): 0.0004 h⁻¹; half-life at 0.1 mg/mL ([3]; 0.9% NaCl): 142 h; degradation rate constant k ([3]; H2O): 0.0004 h⁻¹; half-life at 0.1 mg/mL ([3]; water, H2O): 146 h; degradation rate constant k ([4]; MeOH): 0.0002 h⁻¹; half-life at 0.1 mg/mL ([4]; MeOH): 161 h
–	–	79.5 ± 1.9	44 ± 2.5	O=C1C=CC(=O)c2c1[nH]c(-c1ccc3c(c1)OCO3)[n+]2[O-] [Compound 6c, 2-Benzo[1,3]dioxol-1H-benzimidazol-4,7-dione N-oxide]	1.80	–
96.8 ± 1.9	–	–	–	O=C1C=CC(=O)c2c1[nH]c(-c1ccc3ccccc3c1)[n+]2[O-] [Compound 6d, 2-Naphthyl-1H-benzimidazol-4,7-dione N-oxide]	2.62	–
